Data reported in patent US8877763B2, “Substituted pyridopyrimidine compounds and their use as FLT3 inhibitors” (Genosco, priority 2012, dated 2014).
Residue numbers refer to the chain shown, from its start. Counter-ions that a name gives are not always drawn.

Legend:
[1] = biological target: T1, Truncated human FLT3 wildtype (Homo sapiens, UniProt P36888); experiment: Inhibition of enzymatic FLT3 wildtype kinase activity (Lance Ulight TR-FRET); format: biochemical
T1 construct: Truncated human FLT3 wildtype; purchased Carna Biosciences
T1 sequence (P36888 564-993 limits assumed): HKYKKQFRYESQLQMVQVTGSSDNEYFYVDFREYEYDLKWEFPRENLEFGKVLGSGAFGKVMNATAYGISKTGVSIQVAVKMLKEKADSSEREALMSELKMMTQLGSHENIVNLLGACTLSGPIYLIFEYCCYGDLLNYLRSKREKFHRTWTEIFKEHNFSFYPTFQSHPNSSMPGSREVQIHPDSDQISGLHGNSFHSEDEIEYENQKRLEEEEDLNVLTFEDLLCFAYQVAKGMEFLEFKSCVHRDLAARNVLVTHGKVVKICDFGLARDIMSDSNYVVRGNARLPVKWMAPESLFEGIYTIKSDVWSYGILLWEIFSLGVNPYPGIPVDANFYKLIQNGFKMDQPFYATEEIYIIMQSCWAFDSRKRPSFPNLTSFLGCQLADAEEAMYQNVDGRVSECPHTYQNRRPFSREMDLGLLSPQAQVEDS
Procedure: (§1) Compounds of the invention were initially diluted to 10 mM in 100% DMSO (CALBIOCHEM™) for storage and made into kinase buffer solution to create a compound concentration ranging from 1 uM and 10 uM. Serial dilutions of compounds of the invention were dispensed into a 96-well plate (GREINER BIOSCIENCES™) at 6 μL each.

JAK2 = biological target: T2, JAK2 (Homo sapiens, UniProt O60674); experiment: Inhibition of enzymatic JAK2 kinase activity (Lance Ulight TR-FRET); format: biochemical
T2 construct: Truncated human FLT3 wildtype, mutant D835Y, and JAK2; purchased Carna Biosciences
Procedure: as §1

FLT3 mutant D835Y = biological target: T3, FLT3 mutant D835Y (Homo sapiens, UniProt P36888, D835Y); experiment: Inhibition of enzymatic FLT3 mutant D835Y kinase activity (Lance Ulight TR-FRET); format: biochemical
T3 construct: Truncated human FLT3 wildtype, mutant D835Y; purchased Carna Biosciences
T3 sequence (P36888 564-993 D835Y limits assumed): T1 sequence (P36888 564-993 limits assumed) with D272Y
Procedure: as §1

[2] = tested on: MV4-11 cells expressing human FLT3-ITD; experiment: Cell viability assay: inhibition of FLT3-ITD-positive cells (ATPLite); format: cell-based; conditions: 72 hour incubation
Procedure: Compounds of the invention were tested for cell viability effect on MV4-11 cells. For cell viability assay, MV4-11 cells expressing human FLT3-ITD were obtained from the American Type Culture Collection (ATCC, Manassas, Va.). This cell line was maintained with an Roswell Park Memorial Institute (RPMI) medium (HyClone™) containing 10 bovine calf serum (BCS; Hyclone™) supplemented iron. The MV4-11 cells were seeded at 2×10^4 cells in 96-well culture plates, and serially diluted compound was then added. After a 72 hour incubation period at 37° C., cell viability was measured using the ATPLite 1 step assay (Perkin-Elmer™) that is based on the quantification of ATP from viable cells. CellTiter Aqueous assay (Promega™) was also performed in parallel as an orthogonal assay. IC50 values were calculated using nonlinear regression and defined as the concentration needed for a 50 reduction in luminescence or absorbance treated versus untreated control cells (Prism™ Software).

[3] = tested on: MV4-11 cell line of FLT3-ITD; experiment: Xenograft mouse model using MV4-11 cell line; format: in vivo, Balb/C nude mice; conditions: for Means of Tumor Volume / Percent Tumor Regression (PTR %): 30 mg/kg every day
Procedure: Compounds of the invention were tested in xenograft mouse model using MV4-11 cell line of FLT3-ITD. All male animals of 6 weeks old Balb/C nude mice were housed in plastic cages (4˜6 mice/cage) containing corn cob and maintained in a pathogen-free facility (20˜25° C., 30˜70% humidity) with a 12 hour light:dark cycle. Tumor model was established by subcutaneous injection with MV4-11 cell suspension. When the average tumor volume reached approximately 400 mm^3 (˜5 weeks post tumor implantation), the tumor bearing-mice were assigned 2 groups (9 mice per each). The compound 238 treatment of 30 mg/kg every day was initiated and continue for 28 days. The vehicle 20% hydroxyl-β-cyclodextrin was used. Tumor volume was measured twice weekly. Where applicable, percent tumor regression (PTR) for each group will be calculated by the formula: PTR=100×(tumor volumeinitial−tumor volumefinal)/(tumor volumeinitial).

T2 sequence (O60674 826-1132 limits assumed): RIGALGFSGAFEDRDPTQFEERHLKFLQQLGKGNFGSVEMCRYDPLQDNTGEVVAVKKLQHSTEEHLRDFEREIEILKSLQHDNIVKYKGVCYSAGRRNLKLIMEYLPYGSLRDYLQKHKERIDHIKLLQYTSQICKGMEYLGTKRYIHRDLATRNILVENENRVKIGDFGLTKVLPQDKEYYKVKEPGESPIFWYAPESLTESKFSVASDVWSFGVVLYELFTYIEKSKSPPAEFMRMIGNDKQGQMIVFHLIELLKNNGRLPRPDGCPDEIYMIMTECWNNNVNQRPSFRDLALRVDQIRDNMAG

## CN1CCC(Nc2nc(Nc3ccc(OCc4ccccc4)cc3)c3c(=O)[nH]cc(Br)c3n2)CC1 [Compound 221, 4-((4-(benzyloxy)phenyl)amino)-8-bromo-2-((1-methylpiperidin-4-yl)amino)pyrido[4,3-d]pyrimidin-5(6H)-one]
[1]
  IC50: 0.1 nM
JAK2
  IC50: 290 nM
FLT3 mutant D835Y
  IC50: 0.4 nM
[2]; Homo sapiens, MV4-11, 72 h
  IC50: 2.4 nM

## CN1CCC(Nc2nc(Nc3ccc(OC4CCCC4)cc3)c3c(=O)[nH]cc(Br)c3n2)CC1 [Compound 223, 8-bromo-4-((4-(cyclopentyloxy)phenyl)amino)-2-((1-methylpiperidin-4-yl)amino)pyrido[4,3-d]pyrimidin-5(6H)-one]
[1]
  IC50: 0.6 nM
JAK2
  IC50: 153 nM
FLT3 mutant D835Y
  IC50: 0.3 nM

## Cc1ccc(Oc2ccc(Nc3nc(NC4CCN(C)CC4)nc4c(Br)c[nH]c(=O)c34)cc2)cc1 [Compound 225, 8-bromo-2-((1-methylpiperidin-4-yl)amino)-4-((4-(p-tolyloxy)phenyl)amino)pyrido[4,3-d]pyrimidin-5(6H)-one]
[1]
  IC50: 0.3 nM
JAK2
  IC50: 1520 nM
FLT3 mutant D835Y
  IC50: 1.6 nM

## CN1CCC(Nc2nc(Nc3ccc(Oc4ccccc4)cc3)c3c(=O)[nH]cc(Br)c3n2)CC1 [Compound 226, 8-Bromo-2-(1-methylpiperidin-4-ylamino)-4-(4-phenoxyphenylamino)pyrido[4,3-d]pyrimidin-5(6H)-one hydrochloride]
JAK2
  IC50: 281 nM

## CN1CCC(Nc2nc(Nc3ccc(OC4CCCCC4)cc3)c3c(=O)[nH]cc(Br)c3n2)CC1 [Compound 228, 8-bromo-4-((4-(cyclohexyloxy)phenyl)amino)-2-((1-methylpiperidin-4-yl)amino)pyrido[4,3-d]pyrimidin-5(6H)-one]
[1]
  IC50: 0.1 nM
JAK2
  IC50: 129 nM
FLT3 mutant D835Y
  IC50: 0.6 nM
[2]
  IC50: 0.8 nM

## CN1CCC(Nc2nc(Nc3ccc(OC4CCCCC4)cc3)c3c(=O)[nH]cc(Br)c3n2)CC1 [Compound 233, 8-bromo-4-((4-(cyclohexyloxy)phenyl)amino)-2-((1-methylpiperidin-4-yl)amino) pyrido[4,3-d]pyrimidin-5(6H)-one hydrochloride]
JAK2
  IC50: 173 nM
FLT3 mutant D835Y
  IC50: 0.3 nM
[2]; Homo sapiens, MV4-11, 72 h
  IC50: 1.4 nM

## CN1CCC(Nc2nc(Nc3ccc(OCC4CCCC4)cc3)c3c(=O)[nH]cc(Br)c3n2)CC1 [Compound 235, 8-bromo-4-((4-(cyclopentylmethoxy)phenyl)amino)-2-((1-methylpiperidin-4-yl)amino)pyrido[4,3-d]pyrimidin-5(6H)-one]
[2]; Homo sapiens, MV4-11, 72 h
  IC50: 1.6 nM

## CN1CCC(Nc2nc(Nc3ccc(OC4CCCC4)cc3)c3c(=O)[nH]cc(Br)c3n2)CC1 [Compound 237, 8-bromo-4-(4-(cyclopentyloxy)phenylamino)-2-(1-methylpiperidin-4-ylamino)pyrido[4,3-d]pyrimidin-5(6H)-one hydrochloride]
[2]; Homo sapiens, MV4-11, 72 h
  IC50: 0.5 nM

## CN1CCC(Nc2nc(Nc3ccc(Oc4cccc(F)c4)cc3)c3c(=O)[nH]cc(Br)c3n2)CC1.Cl [Compound 238, 8-bromo-4-(4-(3-fluorophenoxy)phenylamino)-2-(1-methylpiperidin-4-ylamino)pyrido[4,3-d]pyrimidin-5(6H)-one hydrochloride]
[1]
  IC50: 1.4 nM
  inhibition of kinase activity of FLT3 wildtype (in words): strong inhibition
JAK2
  IC50: 845 nM
FLT3 mutant D835Y
  IC50: 0.4 nM
  inhibition of kinase activity of FLT3 mutant D835Y (in words): strong inhibition
[2]; hydrochloride
  IC50: 1.9 nM
[3]; day of treatment 1
  Means of Tumor Volume: 312.8 mm^3
[3]; day of treatment 4
  Means of Tumor Volume: 79.4 mm^3
  Percent Tumor Regression (PTR %): 74.6%
[3]; day of treatment 7
  Means of Tumor Volume: 27.6 mm^3
  Percent Tumor Regression (PTR %): 91.2%
[3]; day of treatment 11
  Means of Tumor Volume: 0 mm^3
  Percent Tumor Regression (PTR %): 100%
[3]; day of treatment 14
  Means of Tumor Volume: 0 mm^3
  Percent Tumor Regression (PTR %): 100%
[3]; day of treatment 17
  Means of Tumor Volume: 0 mm^3
  Percent Tumor Regression (PTR %): 100%
[3]; day of treatment 21
  Means of Tumor Volume: 0 mm^3
  Percent Tumor Regression (PTR %): 100%
[3]; day of treatment 25
  Means of Tumor Volume: 0 mm^3
  Percent Tumor Regression (PTR %): 100%
[3]; day of treatment 28
  Means of Tumor Volume: 0 mm^3
  Percent Tumor Regression (PTR %): 100%
[3]; after 11 days of compound treatment
  tumor regression (in words): complete tumor regression

## CN1CCC(Nc2nc(Nc3ccc(Oc4cccc(F)c4)cc3)c3c(=O)[nH]cc(Br)c3n2)CC1 [Compound 240, 8-bromo-4-((4-(3-fluorophenoxy)phenyl)amino)-2-((1-methylpiperidin-4-yl)amino) pyrido[4,3-d]pyrimidin-5(6H)-one]
[1]
  IC50: 1.2 nM
JAK2
  IC50: 599 nM
FLT3 mutant D835Y
  IC50: 1.3 nM
[2]
  IC50: 0.5 nM

## CN1CCC(Nc2nc(Nc3ccc(Oc4ccc(F)c(F)c4)cc3)c3c(=O)[nH]cc(Br)c3n2)CC1 [Compound 241, 8-bromo-4-((4-(3,4-difluorophenoxy)phenyl)amino)-2-((1-methylpiperidin-4-yl)amino)pyrido[4,3-d]pyrimidin-5(6H)-one hydrochloride]
[1]
  IC50: 1.6 nM
JAK2
  IC50: 1050 nM
FLT3 mutant D835Y
  IC50: 0.6 nM
[2]; Homo sapiens, MV4-11, 72 h
  IC50: 0.9 nM

## CN1CCC(Nc2nc(Nc3cccc(Oc4ccccc4)c3)c3c(=O)[nH]cc(Br)c3n2)CC1 [Compound 246, 8-bromo-2-((1-methylpiperidin-4-yl)amino)-4-((3-phenoxyphenyl)amino)pyrido[4,3-d]pyrimidin-5(6H)-one]
[1]
  IC50: 0.1 nM
JAK2
  IC50: 260 nM
FLT3 mutant D835Y
  IC50: 1.7 nM
[2]; Homo sapiens, MV4-11, 72 h
  IC50: 1.4 nM
